According to article PMC8914261, “Discovery and Characterization of the Naturally Occurring Inhibitors Against Human Pancreatic Lipase in Ampelopsis grossedentata” (Frontiers in Nutrition, 2022):
Each block holds one molecule with its values, some of them ahead of it.

Assays:
[1] = oral administration; ref [60], [61]; cited from earlier work
[2] = Estimated local exposure in the gastrointestinal tract (daily dose divided by volume of the human gastrointestinal system); settings: oral AGE at daily dosage recommended by Chinese Materia Medica
From the text: A. grossedentata is known as the “king of flavonoids”, while the content of total flavonoids in AGE is up to 45% ([57]). Herein, a total of nine flavonoids in AGE were identified and characterized by LC–MS/MS-based chemical profiling.

[3] = biological target: T1, human pancreatic lipase (hPL) (Homo sapiens, UniProt P16233); assay: hPL inhibition assay (hPL-catalyzed DDAO-ol hydrolysis, fluorescence); format: biochemical; settings: for IC50: hPL, DDAO-ol 20 μM as substrate, 3 min pre-incubation at 37°C; for hPL inhibition activity (qualitative): tested at 1, 10 and 100 μM; for remaining activity at 10 µM: inhibitor at 10 μM, read-out: residual activities of hPL; for hPL inhibition at high dose: inhibitor at 100 μM
T1 construct: made in house
T1 sequence (P16233 17-465): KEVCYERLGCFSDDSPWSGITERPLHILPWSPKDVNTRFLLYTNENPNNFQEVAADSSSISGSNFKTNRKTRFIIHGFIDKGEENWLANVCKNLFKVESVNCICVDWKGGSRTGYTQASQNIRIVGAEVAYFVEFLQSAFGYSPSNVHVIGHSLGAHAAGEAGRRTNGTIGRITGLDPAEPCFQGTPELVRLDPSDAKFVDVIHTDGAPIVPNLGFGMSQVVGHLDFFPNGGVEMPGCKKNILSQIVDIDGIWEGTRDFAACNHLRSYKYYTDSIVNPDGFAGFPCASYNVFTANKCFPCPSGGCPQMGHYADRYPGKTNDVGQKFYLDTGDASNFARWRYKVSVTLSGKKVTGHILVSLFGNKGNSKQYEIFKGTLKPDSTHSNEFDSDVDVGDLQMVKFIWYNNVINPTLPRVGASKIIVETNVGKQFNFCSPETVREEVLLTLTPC

[4] = biological target: T1, human pancreatic lipase (hPL); assay: Inhibition kinetic analyses against hPL-catalyzed DDAO-ol hydrolysis (Lineweaver-Burk); format: biochemical
[5] = biological target: T1, human pancreatic lipase (hPL); assay: Time-dependent inhibition assay of hPL (different pre-incubation times); format: biochemical; settings: long pre-incubation time vs. standard
Experimental: After pre-incubating at 37°C for 3 min, the substrate of DDAO-ol (20 μM, final concentration) was added to the initial reaction. […] The standard curve was plotted using DDAO as product standard (Supplementary Figure S6). The control incubations without inhibitors were also performed.

- local exposure in the gastrointestinal tract [2]: 206.08 µM
- IC50 [3]: 34.3 ± 4.63 µM
Molecule: O=C1c2c(O)cc(O)cc2O[C@H](c2cc(O)c(O)c(O)c2)[C@H]1O [Dihydromyricetin]
- local exposure in stomach and small intestine vs. other deep organs (heart, liver, spleen, lung, kidney, brain) [1]: much higher
- oral bioavailability [1]: very poor

- local exposure in the gastrointestinal tract [2]: 106.90 µM
- IC50 [3]: 14.4 ± 1.21 µM
- hPL inhibition activity (qualitative) [3]: moderate
Molecule: O=C1c2c(O)cc(O)cc2O[C@H](c2cc(O)c(O)c(O)c2)[C@@H]1O [Iso-dihydromyricetin]

Molecule: O=c1c(O)c(-c2cc(O)c(O)c(O)c2)oc2cc(O)cc(O)c12 [Myricetin]
- Ki ([4]; apparent Ki): 2.04 ± 0.75 µM
- local exposure in the gastrointestinal tract [2]: 19.37 µM
- IC50 [3]: 1.34 ± 0.18 µM
- remaining activity at 10 µM [3]: < 15%
- time dependence of hPL inhibition [5]: not time-dependent

Molecule: O=c1c(O)c(-c2ccc(O)c(O)c2)oc2cc(O)cc(O)c12 [Quercetin]
- Inhibition mode ([4]; Lineweaver-Burk plots): Non-competitive
- remaining activity at 10 µM [3]: < 15%
- time dependence of hPL inhibition [5]: not time-dependent

- IC50 [3]: > 100 µM
- hPL inhibition at high dose [3]: did not inhibit
Molecule: O=c1c(O[C@@H]2OC[C@@H](O)[C@H](O)[C@H]2O)c(-c2ccc(O)c(O)c2)oc2cc(O)cc(O)c12 [Reynoutirn, Reynoutrin]

- local exposure in the gastrointestinal tract [2]: 11.85 µM
- IC50 [3]: 27.8 ± 2.92 µM
- hPL inhibition activity (qualitative) [3]: moderate
Molecule: O=C1c2c(O)cc(O)cc2OC(c2ccc(O)c(O)c2)C1O (stereo not shown) [Taxifolin]

Molecule: Myricitrin
- hPL inhibition at high dose [3]: did not inhibit

- IC50 [3]: 3.46 ± 0.07 µM
Molecule: Sanggenone C [SanggenoneC, reference compound]
